From US6627408B1, “Antifungal assay” (Cytokinetics, Inc., priority 2000, dated 2003)

Legend:
[1] = target: T1, A. nidulans bimC motor domain (Emericella nidulans, UniProt P17120); assay: ATPase assay of bimC motor domain (ATP hydrolysis, ADP or phosphate readout); format: biochemical, Aspergillus nidulans; conditions: bimC kinesin motor domain; motor domain fragment cloned and expressed in bacteria; FIG. 14
T1 construct: ATPase (bimC kinesin motor domain); made in house; host or cells: bacteria
T1 sequence (P17120 81-416 limits assumed): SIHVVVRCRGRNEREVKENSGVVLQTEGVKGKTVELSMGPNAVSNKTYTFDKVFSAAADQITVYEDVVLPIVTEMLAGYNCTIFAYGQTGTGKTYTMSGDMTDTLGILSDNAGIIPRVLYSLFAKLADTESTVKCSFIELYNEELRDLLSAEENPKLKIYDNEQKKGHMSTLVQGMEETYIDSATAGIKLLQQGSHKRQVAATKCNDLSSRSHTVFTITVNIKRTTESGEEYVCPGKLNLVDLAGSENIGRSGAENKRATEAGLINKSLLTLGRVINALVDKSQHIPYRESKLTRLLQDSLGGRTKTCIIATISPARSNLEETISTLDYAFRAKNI
From the text: FIG. 12 depicts the cloning and expression of A. nidulans bimC motor domain. In Panel A, an overview of the express is shown. The fragment containing the bimC motor domain is indicated by a filled semi-circle. In B, a Coomassie stained gel of the purification of bimC motor domain is shown.
Aspergillus nidulans bimC is a kinesin related protein (KRP) whose gene product encodes an essential mitotic KRP. BimC is the founding member of the bimC subfamily of mitotic kinesins (Morris NR, Enos AP. (1992) Trends Genet 8:1 32-7). Mutants in bimC are blocked in mitosis and arrest with duplicated but unseparated spindle poles. (Enos AP, Morris NR. (1990) Cell 60:6 1019-27). Following the discovery that bimC encodes a KRP, several bimC family members have been identified in diverse organisms ranging from yeast to humans. See. FIG. 1. […]
In a particularly preferred embodiment, a fragment of the bimC protein comprising its hydrolytically active “motor” domain is used. This motor domain has been cloned and expressed in bacteria such that large quantities of biochemically active, substantially pure protein are available (FIG. 12). […]
In a preferred embodiment, activity is measured by the methods disclosed in Serial No. 09/314,464, filed May 18, 1999, which is incorporated herein by reference in its entirety. […] The presence of ADP or inorganic phosphate release is used as the readout for protein activity. […]

fungal tubulin = conditions: cited from earlier work
mammalian tubulin = conditions: cited from earlier work

IC50 [1] [µM] | SMILES | inhibition of fungal tubulin (fungal tubulin) | effect on mammalian tubulin (mammalian tubulin)
25 | O=C1OC(c2ccco2)=N/C1=C\c1ccc(Br)s1 [D00018 row 1] |  | 
 | CCCCNC(=O)n1c(NC(=O)OC)nc2ccccc21 [benomyl] | potent inhibitor | no effect
